The record followed here is paper PMC6332026, “Synthesis and Pharmacochemistry of New Pleiotropic Pyrrolyl Derivatives” (Molecules, 2015).

Data set [1] relates to carrageenan-induced rat paw edema. Briefly: Inhibition of rat paw edema induced by carrageenan. Format: in vivo, Fischer 344 rats. To be noted: intraperitoneally, 3.5 h; for inhibition in vivo at 10 µmol/kg: Rattus norvegicus, ip, 0.01 mmol/kg body weight, read-out: CPE % inhibition of rat paw edema induced by carrageenan. The protocol:
The pyrrolyl derivatives, as well as their precursor chalcones were tested in vivo for the inhibition of rat paw edema induced by carrageenan. […] […]. For Compounds 2i, 2iii, 2iv and 2v, we determined their ED50 values. […]. The finding supports the primary idea of this design.
Edema was induced in the right hind paw of Fischer 344 rats (150–200 g). In the study, both males and females were included, with the exemption of pregnant females. The animals, which have been bred in our laboratory, were housed under standard conditions and received a diet of commercial food pellets and water ad libitum during maintenance. One hour before the onset of the experiment, food and water were removed. The tested compounds (dose 0.01 mmol/kg body weight) were diluted in water with a few drops of Tween 80, and they were administered intraperitoneally simultaneously with the intradermal injection of 0.1 mL 2% of carrageenan in water. The animals were euthanatized 3.5 h after the carrageenan administration. The difference between the weight of injected and uninjected paws was calculated for each animal and was compared to control animals, which were treated with water. Indomethacin was used as a reference compound in 0.01 mmol/kg. The results were expressed as the percent inhibition of the edema (CPE %).

The target in data set [2] is T1, COX-2 (Homo sapiens, UniProt P35354).
T1 sequence (P35354 18-604): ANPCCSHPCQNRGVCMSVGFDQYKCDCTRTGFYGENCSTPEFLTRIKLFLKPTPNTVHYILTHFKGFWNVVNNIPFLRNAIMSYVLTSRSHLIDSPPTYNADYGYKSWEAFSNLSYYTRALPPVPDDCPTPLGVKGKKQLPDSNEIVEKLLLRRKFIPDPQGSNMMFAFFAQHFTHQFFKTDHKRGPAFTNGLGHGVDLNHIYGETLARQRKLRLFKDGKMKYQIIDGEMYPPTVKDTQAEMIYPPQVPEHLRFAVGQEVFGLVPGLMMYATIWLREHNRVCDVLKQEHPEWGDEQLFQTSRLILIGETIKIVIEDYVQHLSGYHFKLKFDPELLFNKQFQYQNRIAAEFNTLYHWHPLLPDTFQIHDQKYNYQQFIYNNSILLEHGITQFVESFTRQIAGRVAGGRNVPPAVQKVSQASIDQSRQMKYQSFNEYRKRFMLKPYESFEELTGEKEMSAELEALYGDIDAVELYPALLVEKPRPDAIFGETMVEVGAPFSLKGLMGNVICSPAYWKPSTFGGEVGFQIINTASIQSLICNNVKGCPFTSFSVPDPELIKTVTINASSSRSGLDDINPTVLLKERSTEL
Briefly: Inhibition of cycloxygenase-2 (colorimetric TMPD assay). To be noted: for inhibition at 100 µM: read-out: COX-2 % inhibition; for COX-2 % inhibition: 100 μM.
Procedure: COX-2 inhibitory activity was determined by using arachidonic acid (AA) as a substrate in buffer (0.1 M Tris pH 8.5) and TMPD as a co-substrate.

Data set [3] is described as follows: Lipophilicity as RM values by reverse-phase thin layer chromatography (RPTLC). The data set is classed as physicochemical. To be noted: methanol/water 75/25 v/v with ammonia drops. An excerpt:
Since lipophilicity is a significant physicochemical property determining the absorption, distribution, metabolism and excretion properties (ADME) of drugs, we attempted to determine experimentally the lipophilicity as RM values with reverse-phase thin layer chromatography (RPTLC). Lipophilicity was also theoretically calculated as Clog P values. According to the calculated Clog P values, the most lipophilic compounds were 2iii (6.37) and 2v (6.04). However, this observation was not supported by the RM values, since Compound 2iii presented very low lipophilicity (−0.061). Furthermore, the lipophilicity of Compound 2v could not be determined experimentally under the reported conditions. Attempts to correlate Clog P and RM values failed. From our results (Table 2), it can be concluded that RM values could not be used as a successful relative measure of the overall lipophilic/hydrophilic properties of these molecules. Tentatively, this can be attributed to the different nature of the hydrophilic and lipophilic phases in the two systems. Clog P refers to n-octanol/water, whereas RM in this case refers to methanol/water. Moreover, it is likely that pyrrole derivatives form hydrogen bonds within the hydrophilic phase.
Reverse-phase thin layer chromatography (RPTLC) was used for the determination of RM values. Silica gel plates were saturated with 5% v/v liquid paraffin in petroleum ether, and the mobile phase was methanol/water (75/25 v/v) with the addition of ammonia drops. Spots were detected under UV light. RM values were determined by the corresponding Rf values (from five measurements for each compound) using the equation [43]: RM = log[(1/Rf) − 1](1)

The target in data set [4] is T2, soybean lipoxygenase (Glycine max, UniProt P08170).
T2 construct: purchased Sigma Chemical, Co. (St. Louis, MO, USA)
T2 sequence (P08170 1-839): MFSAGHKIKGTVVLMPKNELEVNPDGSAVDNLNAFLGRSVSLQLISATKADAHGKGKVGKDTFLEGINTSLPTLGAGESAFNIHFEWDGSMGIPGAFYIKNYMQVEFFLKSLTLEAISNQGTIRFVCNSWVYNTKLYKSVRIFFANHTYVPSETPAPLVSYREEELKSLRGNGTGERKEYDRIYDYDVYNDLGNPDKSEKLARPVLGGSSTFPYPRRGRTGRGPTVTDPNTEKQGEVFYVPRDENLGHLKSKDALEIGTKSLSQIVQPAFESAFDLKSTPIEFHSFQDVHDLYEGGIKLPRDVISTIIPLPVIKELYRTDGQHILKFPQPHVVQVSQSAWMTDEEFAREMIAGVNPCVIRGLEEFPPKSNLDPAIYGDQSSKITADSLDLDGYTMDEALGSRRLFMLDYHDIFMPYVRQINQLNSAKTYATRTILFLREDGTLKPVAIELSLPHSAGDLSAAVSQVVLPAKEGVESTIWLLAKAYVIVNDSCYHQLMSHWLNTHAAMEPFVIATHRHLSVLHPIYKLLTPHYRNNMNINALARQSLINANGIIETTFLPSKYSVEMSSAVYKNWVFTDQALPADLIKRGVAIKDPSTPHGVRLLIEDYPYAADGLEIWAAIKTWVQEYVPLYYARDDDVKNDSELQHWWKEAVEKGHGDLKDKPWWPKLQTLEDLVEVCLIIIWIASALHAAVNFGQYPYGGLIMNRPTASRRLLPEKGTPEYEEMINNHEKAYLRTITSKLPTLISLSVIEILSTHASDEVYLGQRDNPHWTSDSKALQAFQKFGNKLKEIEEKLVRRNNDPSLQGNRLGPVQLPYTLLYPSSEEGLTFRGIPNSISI
Briefly: Inhibition of soybean lipoxygenase (UV absorbance-based enzyme assay). Format: biochemical. To be noted: for inhibition at 100 µM: read-out: LOX % inhibition. The protocol: Lipoxygenase catalyzes the first two steps in the metabolism of arachidonic acid to leukotrienes. LTB4 generation is important in the pathogenesis of neutrophil-mediated inflammatory diseases with a marked relation to the severity of cardiovascular diseases, asthma and cancer. We evaluated the synthesized pyrroles for their ability to inhibit soybean LOX by the UV absorbance-based enzyme assay. […] The inhibition of COX-2, as a peroxidase, was determined by a colorimetric assay with the oxidation of N,N,N′,N′-tetramethyl-p-phenylenediamine (TMPD).
The tested compounds were dissolved in DMSO, and the final concentration was 100 μΜ. The compounds were incubated at room temperature with sodium linoleate as a substrate (0.1 mL) in a buffer solution of Tris:HCl (pH 9.00) and 0.2 mL of a solution of soybean lipoxygenase.

Structures are written as SMILES. “Also recorded” adds a separate entry of the source. Marks after values point to notes of the source that are not given here.

The term inhibition denotes the relative decrease from the control value, in per cent. As usually defined, the IC50 is the point on the concentration scale where inhibition reaches its midpoint. Regarding `O=C(c1cccs1)c1c[nH]cc1-c1cccc(Oc2ccccc2)c1` [Compound 2i, [4-(3-Phenoxyphenyl)-1H-pyrrol-3-yl](thien-2-yl)methanone], the “ED50 (carrageenan rat paw edema)” value in data set [1] was 0.061 ^c mmol/kg Body Weight. The inhibition at 100 µM in data set [2] is 67.2%. Moreover, the RM in data set [3] is 0.091. In data set [4] (pH 9.00, read-out: LOX IC50), the IC50 was determined as 1 mM.
On to `O=C(c1cccs1)c1c[nH]cc1-c1ccc(OCc2ccc(Br)cc2)cc1` [Compound 2iii, (4-{4-[(4-Bromobenzyl)oxy]phenyl}-1H-pyrrol-3-yl)(thien-2-yl)methanone], for which, in data set [1], the inhibition in vivo at 10 µmol/kg was 89% and the “ED50 (carrageenan rat paw edema)” value came out at 0.052 mmol/kg Body Weight. Besides, in data set [2], the COX-2 % inhibition result is “inactive; also recorded: without any activity”. Besides, the RM in data set [3] is −0.061.
For the molecule `O=C(c1ccccc1)c1c[nH]cc1-c1cccc2ccccc12` [Compound 2iv, [4-(Naphth-1-yl)-1H-pyrrol-3-yl](phenyl)methanone], the inhibition in vivo at 10 µmol/kg in data set [1] is 75%. Moreover, the COX-2 % inhibition result in data set [2] is “inactive”. This molecule had an RM in data set [3] of −0.149. In addition, the inhibition at 100 µM in data set [4] is 10%.
Consider `O=C(c1ccc(Cl)cc1)c1c[nH]cc1-c1cccc2ccccc12` [Compound 2v, (4-Chlorophenyl)[4-(naphth-1-yl)-1H-pyrrol-3-yl]methanone], for which the inhibition in vivo at 10 µmol/kg in data set [1] amounted to 78%. In addition, the “ED50 (carrageenan rat paw edema)” value in data set [1] turned out to be 0.063 mmol/kg Body Weight. The inhibition at 100 µM in data set [2] amounted to 81%; in data set [4], 32%.
